Biological target: T1, His-hMAGL (recombinant polyhistidine tagged human MAGL protein) (Homo sapiens, UniProt Q99685)
T1 construct: made in house; host or cells: E. coli BL21(DE3)
T1 sequence (Q99685 1-303): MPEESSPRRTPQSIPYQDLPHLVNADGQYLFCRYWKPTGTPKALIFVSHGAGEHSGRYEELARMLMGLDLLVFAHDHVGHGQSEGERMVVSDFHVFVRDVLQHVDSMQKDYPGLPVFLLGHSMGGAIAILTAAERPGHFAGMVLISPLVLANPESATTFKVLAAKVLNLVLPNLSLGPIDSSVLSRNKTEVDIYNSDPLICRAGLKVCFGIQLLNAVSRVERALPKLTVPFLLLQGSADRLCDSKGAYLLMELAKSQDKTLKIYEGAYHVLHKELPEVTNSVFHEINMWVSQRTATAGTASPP
Assay: Measurement of MAGL inhibitory activity (arachidonic acid production from 2-arachidonylglycerol, RapidFire-mass spectrometry)
Type: biochemical
Settings: MAGL inhibitory rate, test compound 10 μM, 60 min preincubation, 2-arachidonylglycerol substrate
Summary of the method: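 Arachidonic acid formed was quantified by online solid-phase extraction and triple-quadrupole MS in negative SRM mode against a d8 internal standard. Reaction: recombinant His-hMAGL (7.5 ng/mL, pH 7.5 Tris buffer with Triton X-100 and BSA) plus 2-AG (5 μL of 150 μM stock) for 10 min at room temperature, quenched with 2% formic acid. Percent inhibition corrected for enzyme-free background.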

SMILES | inhibition at 10 µM
O=C1CCC2(CN(C(=O)c3sc(-c4ccccc4C(F)(F)F)cc3Cl)C2)N1 [Example 180, 2-((3-chloro-5-(2-(trifluoromethyl)phenyl)-2-thienyl)carbonyl)-2,5-diazaspiro[3.4]octan-6-one] | 87%
O=C1NC2(CO1)CN(C(=O)c1sc3cc(OCC(F)(F)F)ccc3c1Cl)C2 [Example 287, 2-((3-chloro-6-(2,2,2-trifluoroethoxy)-1-benzothiophen-2-yl)carbonyl)-7-oxa-2,5-diazaspiro[3.4]octan-6-one] | 101%
O=C1NC2(CO1)CN(C(=O)c1sc3cc(OC(F)F)cc(C(F)(F)F)c3c1Cl)C2 [Example 292, 2-((3-chloro-6-(difluoromethoxy)-4-(trifluoromethyl)-1-benzothiophen-2-yl)carbonyl)-7-oxa-2,5-diazaspiro[3.4]octan-6-one] | 100%
O=C1NC2(CCO1)CN(C(=O)c1sc3cc(OC(F)(F)F)ccc3c1Cl)C2 [Example 282, 2-((3-chloro-6-(trifluoromethoxy)-1-benzothiophen-2-yl)carbonyl)-7-oxa-2,5-diazaspiro[3.5]nonan-6-one] | 99%
Cc1cccc(-c2ccc3c(Cl)c(C(=O)N4CC5(CCC(=O)N5)C4)sc3c2)c1F [Example 208, 2-((3-chloro-6-(2-fluoro-3-methylphenyl)-1-benzothiophen-2-yl)carbonyl)-2,5-diazaspiro[3.4]octan-6-one] | 100%
O=C1NC2(CCN(C(=O)c3sc4cc(OC(F)(F)F)c(F)cc4c3Cl)C2)CO1 (stereo not shown) [Example 339, 7-((3-chloro-5-fluoro-6-(trifluoromethoxy)-1-benzothiophen-2-yl)carbonyl)-3-oxa-1,7-diazaspiro[4.4]nonan-2-one] | 100%
Cc1c(OC(F)F)cc(F)c2c(Cl)c(C(=O)N3CC4(COC(=O)N4)C3)sc12 [Example 304, 2-((3-chloro-6-(difluoromethoxy)-4-fluoro-7-methyl-1-benzothiophen-2-yl)carbonyl)-7-oxa-2,5-diazaspiro[3.4]octan-6-one] | 100%
O=C1CCC2(CN(C(=O)c3sc4cc(-c5ccc(C(F)F)cc5)ccc4c3Cl)C2)N1 [Example 219, 2-((3-chloro-6-(4-(difluoromethyl)phenyl)-1-benzothiophen-2-yl)carbonyl)-2,5-diazaspiro[3.4]octan-6-one] | 94%
O=C1CCC2(CN(C(=O)c3sc(-c4cccc(OC(F)(F)F)c4)cc3Cl)C2)N1 [Example 248, 2-((3-chloro-5-(3-(trifluoromethoxy)phenyl)-2-thienyl)carbonyl)-2,5-diazaspiro[3.4]octan-6-one] | 95%
O=C1NC2(CO1)CN(C(=O)c1sc3cc(OC(F)(F)F)ccc3c1C(F)F)C2 [Example 264, 2-((3-(difluoromethyl)-6-(trifluoromethoxy)-1-benzothiophen-2-yl)carbonyl)-7-oxa-2,5-diazaspiro[3.4]octan-6-one] | 100%
O=C1CCC2(CN(C(=O)N3CCC(Cc4cccc(Cl)c4)CC3)C2)N1 [Example 100, 2-((4-(3-chlorobenzy)lpiperidin-1-yl)carbonyl)-2,5-diazaspiro[3.4]octan-6-one] | 102%
O=C1CCC2(CN(C(=O)c3sc4cc(OC(F)(F)F)ccc4c3C(F)(F)F)C2)N1 [Example 263, 2-((6-(trifluoromethoxy)-3-(trifluoromethyl)-1-benzothiophen-2-yl)carbonyl)-2,5-diazaspiro[3.4]octan-6-one] | 98%
O=C1CCC2(CN(C(=O)c3ccc(-c4cccc(C(F)(F)F)c4)c(C(F)(F)F)c3)C2)N1 [Example 131, 2-((2,3′-bis(trifluoromethyl)biphenyl-4-yl)carbonyl)-2,5-diazaspiro[3.4]octan-6-one] | 99%
O=C1NC2(CO1)CN(C(=O)c1sc3cc(OC(F)(F)F)cc(F)c3c1Cl)C2 [Example 269, 2-((3-chloro-4-fluoro-6-(trifluoromethoxy)-1-benzothiophen-2-yl)carbonyl)-7-oxa-2,5-diazaspiro[3.4]octan-6-one] | 100%
O=C1CCC2(CN(C(=O)N3CCC(Cc4ccccc4Cl)CC3)C2)N1 [Example 101, 2-((4-(2-chlorobenzyl)piperidin-1-yl)carbonyl)-2,5-diazaspiro[3.4]octan-6-one] | 99%
O=C1CCC2(CN(C(=O)N3CC(COc4cc(Br)c(C(F)(F)F)cc4F)C3)C2)N1 [Example 24, 2-((3-((5-bromo-2-fluoro-4-(trifluoromethyl)phenoxy)methyl)azetidin-1-yl)carbonyl)-2,5-diazaspiro[3.4]octan-6-one] | 103%
O=C1CCC2(CN(C(=O)c3sc4c(C(F)(F)F)cccc4c3Cl)C2)N1 [Example 255, 2-((3-chloro-7-(trifluoromethyl)-1-benzothiophen-2-yl)carbonyl)-2,5-diazaspiro[3.4]octan-6-one] | 99%

SMILES | inhibition at 10 µM
O=C1NC2(CO1)CN(C(=O)c1sc3c(C(F)(F)F)cccc3c1OCC(F)(F)F)C2 [Example 271, 2-((3-(2,2,2-trifluoroethoxy)-7-(trifluoromethyl)-1-benzothiophen-2-yl)carbonyl)-7-oxa-2,5-diazaspiro[3.4]octan-6-one] | 100%
O=C1CCC2(CN(C(=O)c3cc4cc(-c5ccc(Cl)cc5)ccc4s3)C2)N1 [Example 150, 2-((5-(4-chlorophenyl)-1-benzothiophen-2-yl)carbonyl)-2,5-diazaspiro[3.4]octan-6-one] | 83%
O=C1CCC2(CN(C(=O)N3CCC(C(F)(c4ccccc4)c4ccccc4)CC3)C2)N1 [Example 237, 2-((4-(fluoro(diphenyl)methyl)piperidin-1-yl)carbonyl)-2,5-diazaspiro[3.4]octan-6-one] | 101%
O=C1CCC2(CN(C(=O)c3cc4ccc(C(F)(F)F)cc4s3)C2)N1 [Example 30, 2-((6-(trifluoromethyl)-1-benzothiophen-2-yl)carbonyl)-2,5-diazaspiro[3.4]octan-6-one] | 94%
O=C1CCC2(CN(C(=O)c3ccc(-c4c(F)cccc4F)cc3)C2)N1 [Example 76, 2-((2′,6′-difluorobiphenyl-4-yl)carbonyl)-2,5-diazaspiro[3.4]octan-6-one] | 85%
O=C1CCC2(CN(C(=O)c3sc4cc(-c5cc(Cl)ccc5F)ccc4c3Cl)C2)N1 [Example 222, 2-((3-chloro-6-(5-chloro-2-fluorophenyl)-1-benzothiophen-2-yl)carbonyl)-2,5-diazaspiro[3.4]octan-6-one] | 99%
COC(=O)c1cccc(-c2ccc(CC3CCN(C(=O)N4CC5(CCC(=O)N5)C4)CC3)cc2)c1 [Example 110, methyl 4′-((1-((6-oxo-2,5-diazaspiro[3.4]oct-2-yl)carbonyl)piperidin-4-yl)methyl)biphenyl-3-carboxylate] | 101%
O=C1CCC2(CN(C(=O)c3ccc(-c4ccccc4)s3)C2)N1 [Example 126, 2-((5-phenyl-2-thienyl)carbonyl)-2,5-diazaspiro[3.4]octan-6-one] | 85%
O=C1CCC2(CN(C(=O)N3CCC(F)(Cc4ccc(F)cc4)CC3)C2)N1 [Example 97, 2-((4-fluoro-4-(4-fluorobenzyl)piperidin-1-yl)carbonyl)-2,5-diazaspiro[3.4]octan-6-one] | 96%
O=C1CCC2(CN(C(=O)[C@H]3CC[C@H](c4ccc(O)cc4)CC3)C2)N1 [Example 173, 2-((trans-4-(4-hydroxyphenyl)cyclohexyl)carbonyl)-2,5-diazaspiro[3.4]octan-6-one] | 92%
Cn1c(-c2ccc(C(=O)N3CC4(CCC(=O)N4)C3)cc2)cc2ccccc21 [Example 56, 2-(4-(1-methyl-1H-indol-2-yl)benzoyl)-2,5-diazaspiro[3.4]octan-6-one] | 94%
O=C1CCC2(CN(C(=O)c3sc4cc(OC(F)F)ccc4c3Cl)C2)N1 [Example 260, 2-((3-chloro-6-(difluoromethoxy)-1-benzothiophen-2-yl)carbonyl)-2,5-diazaspiro[3.4]octan-6-one] | 100%
Cc1cccc(-c2ccc3c(Cl)c(C(=O)N4CC5(CCC(=O)N5)C4)sc3c2)c1 [Example 186, 2-((3-chloro-6-(3-methylphenyl)-1-benzothiophen-2-yl)carbonyl)-2,5-diazaspiro[3.4]octan-6-one] | 101%
O=C1NC2(CO1)CN(C(=O)N1CCC(COc3ccc(F)cc3Cl)CC1)C2 [Example 240, 2-((4-((2-chloro-4-fluorophenoxy)methyl)piperidin-1-yl)carbonyl)-7-oxa-2,5-diazaspiro[3.4]octan-6-one] | 100%
COc1ccc2sc(C(=O)N3CC4(CCC(=O)N4)C3)c(Br)c2c1 [Example 152, 2-((3-bromo-5-methoxy-1-benzothiophen-2-yl)carbonyl)-2,5-diazaspiro[3.4]octan-6-one] | 100%
O=C1NC2(CO1)CN(C(=O)c1sc3c(Cl)c(OC(F)(F)F)ccc3c1Cl)C2 [Example 290, 2-((3,7-dichloro-6-(trifluoromethoxy)-1-benzothiophen-2-yl)carbonyl)-7-oxa-2,5-diazaspiro[3.4]octan-6-one] | 101%
O=C1NC2(CO1)CN(C(=O)c1sc3cc(-c4c(F)cccc4F)ccc3c1Cl)C2 [Example 345, 2-((3-chloro-6-(2,6-difluorophenyl)-1-benzothiophen-2-yl)carbonyl)-7-oxa-2,5-diazaspiro[3.4]octan-6-one] | 100%

— patent publication US10610520B2, “Heterocyclic compound” (Takeda Pharmaceutical Company Limited, priority 2016, dated 2020)
